Measurements as given in patent US20140187596A1, “FATTY ACID AMIDE HYDROLASE INHIHIBITORS FOR TREATING PAIN” (ALLERGAN, INC., priority 2011, published 2014).

Assays:
Assay type in all cases: biochemical
[1] = molecular target: FP receptor (Homo sapiens, UniProt P43088); test: PG receptor antagonism, FP; set-up: unit not given here; details: antagonist activity at FP receptor
[2] = molecular target: T1, DP receptor (Homo sapiens, UniProt Q13258); test: PG receptor antagonism, DP; set-up: unit not given here; details: antagonist activity at DP receptor
T1 sequence (Q13258 1-359): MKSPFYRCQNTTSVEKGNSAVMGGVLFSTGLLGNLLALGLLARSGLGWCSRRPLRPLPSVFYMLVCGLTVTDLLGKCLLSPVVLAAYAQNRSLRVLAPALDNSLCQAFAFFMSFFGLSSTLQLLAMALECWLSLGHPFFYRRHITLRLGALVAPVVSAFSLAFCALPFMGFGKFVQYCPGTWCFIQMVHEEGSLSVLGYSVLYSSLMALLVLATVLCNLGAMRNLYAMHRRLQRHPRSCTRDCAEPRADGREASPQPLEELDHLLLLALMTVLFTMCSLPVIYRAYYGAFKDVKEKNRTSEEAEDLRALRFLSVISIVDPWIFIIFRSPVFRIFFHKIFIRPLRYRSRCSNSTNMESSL

[3] = molecular target: T2, EP1 receptor (Homo sapiens, UniProt P34995); test: PG receptor antagonism, EP1; set-up: unit not given here; details: antagonist activity at EP1 receptor
T2 sequence (P34995 1-402): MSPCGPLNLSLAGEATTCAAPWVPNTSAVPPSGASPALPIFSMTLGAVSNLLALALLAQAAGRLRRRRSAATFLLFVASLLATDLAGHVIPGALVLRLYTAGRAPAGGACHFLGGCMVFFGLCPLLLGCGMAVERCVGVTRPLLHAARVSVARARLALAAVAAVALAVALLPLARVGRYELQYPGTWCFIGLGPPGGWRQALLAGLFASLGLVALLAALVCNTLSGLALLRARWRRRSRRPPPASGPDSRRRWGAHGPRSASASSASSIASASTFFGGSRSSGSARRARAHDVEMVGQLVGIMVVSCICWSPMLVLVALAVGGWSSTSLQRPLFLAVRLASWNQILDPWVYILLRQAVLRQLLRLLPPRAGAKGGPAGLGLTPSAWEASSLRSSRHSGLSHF

[4] = molecular target: T3, EP3 receptor (Homo sapiens, UniProt P43115); test: PG receptor antagonism, EP3; set-up: unit not given here; details: antagonist activity at EP3 receptor
T3 sequence (P43115 1-390): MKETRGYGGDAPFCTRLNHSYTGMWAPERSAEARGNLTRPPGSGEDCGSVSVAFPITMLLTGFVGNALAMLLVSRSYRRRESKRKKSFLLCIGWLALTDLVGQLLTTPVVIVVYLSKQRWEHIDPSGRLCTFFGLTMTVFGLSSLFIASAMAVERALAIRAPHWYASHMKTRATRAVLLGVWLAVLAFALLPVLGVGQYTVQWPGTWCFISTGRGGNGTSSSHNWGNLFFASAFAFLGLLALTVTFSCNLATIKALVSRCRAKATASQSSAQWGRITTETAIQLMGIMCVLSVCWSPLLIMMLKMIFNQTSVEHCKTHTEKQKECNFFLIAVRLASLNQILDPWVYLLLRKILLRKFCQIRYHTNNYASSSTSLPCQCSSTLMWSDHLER

[5] = molecular target: EP4 receptor (Homo sapiens, UniProt P35408); test: PG receptor antagonism, EP4; set-up: unit not given here; details: antagonist activity at EP4 receptor
Chain of EP4 receptor (P35408 whole entry): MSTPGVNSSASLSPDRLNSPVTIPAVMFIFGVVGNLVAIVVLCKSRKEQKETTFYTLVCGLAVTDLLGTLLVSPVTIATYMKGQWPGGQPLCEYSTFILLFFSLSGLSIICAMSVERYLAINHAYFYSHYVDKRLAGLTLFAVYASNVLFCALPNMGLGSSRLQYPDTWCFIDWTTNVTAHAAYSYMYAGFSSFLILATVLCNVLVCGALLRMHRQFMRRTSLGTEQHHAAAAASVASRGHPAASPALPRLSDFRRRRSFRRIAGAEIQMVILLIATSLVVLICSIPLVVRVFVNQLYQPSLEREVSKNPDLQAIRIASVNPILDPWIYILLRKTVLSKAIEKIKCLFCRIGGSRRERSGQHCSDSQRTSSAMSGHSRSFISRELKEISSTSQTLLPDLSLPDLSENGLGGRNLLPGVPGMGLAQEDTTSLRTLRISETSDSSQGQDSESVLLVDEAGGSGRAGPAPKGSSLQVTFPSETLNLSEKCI

[6] = molecular target: T4, TP receptor (Homo sapiens, UniProt P21731); test: PG receptor antagonism, TP; set-up: unit not given here; details: antagonist activity at TP receptor
T4 sequence (P21731 1-343): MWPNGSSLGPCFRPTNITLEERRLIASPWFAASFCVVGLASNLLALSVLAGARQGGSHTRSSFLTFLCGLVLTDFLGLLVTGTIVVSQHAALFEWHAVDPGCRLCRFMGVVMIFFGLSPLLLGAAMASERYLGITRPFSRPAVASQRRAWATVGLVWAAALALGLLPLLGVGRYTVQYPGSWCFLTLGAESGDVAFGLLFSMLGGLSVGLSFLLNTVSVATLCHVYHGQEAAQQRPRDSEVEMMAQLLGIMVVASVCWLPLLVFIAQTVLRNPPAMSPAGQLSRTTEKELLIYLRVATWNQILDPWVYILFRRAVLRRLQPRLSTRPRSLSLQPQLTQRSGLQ

[7] = molecular target: IP receptor (Homo sapiens, UniProt P43119); test: PG receptor antagonism, IP; set-up: unit not given here; details: antagonist activity at IP receptor
Chain of IP receptor (P43119 whole entry): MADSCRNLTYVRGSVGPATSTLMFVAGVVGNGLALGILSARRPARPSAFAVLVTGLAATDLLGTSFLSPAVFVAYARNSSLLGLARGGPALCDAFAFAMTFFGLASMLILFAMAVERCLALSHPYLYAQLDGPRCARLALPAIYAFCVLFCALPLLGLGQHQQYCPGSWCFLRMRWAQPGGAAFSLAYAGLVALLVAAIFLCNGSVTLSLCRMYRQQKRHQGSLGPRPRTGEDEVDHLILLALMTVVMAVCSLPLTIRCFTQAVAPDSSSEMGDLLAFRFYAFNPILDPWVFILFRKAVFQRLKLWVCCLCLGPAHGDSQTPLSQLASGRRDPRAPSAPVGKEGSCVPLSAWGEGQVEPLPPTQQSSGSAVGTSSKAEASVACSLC

[8] = molecular target: EP2 receptor (Homo sapiens, UniProt P43116); test: PG receptor antagonism, EP2; details: antagonist activity at EP2 receptor
Chain of EP2 receptor (P43116 whole entry): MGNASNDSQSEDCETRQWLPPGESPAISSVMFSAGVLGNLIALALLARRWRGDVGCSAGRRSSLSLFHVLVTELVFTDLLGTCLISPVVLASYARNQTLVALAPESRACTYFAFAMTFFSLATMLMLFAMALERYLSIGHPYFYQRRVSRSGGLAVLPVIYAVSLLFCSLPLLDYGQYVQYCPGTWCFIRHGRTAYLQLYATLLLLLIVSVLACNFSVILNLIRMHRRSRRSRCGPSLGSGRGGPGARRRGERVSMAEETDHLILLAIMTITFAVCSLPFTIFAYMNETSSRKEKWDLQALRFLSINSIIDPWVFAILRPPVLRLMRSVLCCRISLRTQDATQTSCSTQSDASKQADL

Chain of FP receptor (P43088 whole entry): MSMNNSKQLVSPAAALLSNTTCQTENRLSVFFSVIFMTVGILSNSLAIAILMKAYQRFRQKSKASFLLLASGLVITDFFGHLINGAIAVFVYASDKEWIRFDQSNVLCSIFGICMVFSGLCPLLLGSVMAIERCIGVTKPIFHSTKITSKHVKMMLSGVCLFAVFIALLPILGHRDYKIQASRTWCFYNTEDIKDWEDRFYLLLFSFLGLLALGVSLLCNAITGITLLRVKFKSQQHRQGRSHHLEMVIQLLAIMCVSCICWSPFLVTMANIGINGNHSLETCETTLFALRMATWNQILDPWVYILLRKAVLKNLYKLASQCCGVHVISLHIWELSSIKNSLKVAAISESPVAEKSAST

Structure (SMILES)	FP [1]	DP [2]	EP1 [3]	EP3 [4]	EP4 [5]	TP [6]	IP [7]	EP2 [8]
O=C(O)/C=C/c1ccc(F)cc1C[C@@H]1C(c2nc(C(=O)NCCCCC3CCCCC3)co2)C2CC[C@H]1O2 (stereo partly drawn) [Example 1, (E)-3-(2R-{3R-[4-(4-Cyclohexyl-butylcarbamoyl)-oxazol-2-yl]-7-oxa-bicyclo[2.2.1]hept-2-ylmethyl}-4-fluoro-phenyl)-acrylic acid]	60	70	380	5500	60	<1	–	–
CCS(=O)(=O)NC(=O)/C=C/c1ccc(F)cc1C[C@@H]1C(c2nc(C(=O)NCCCCC3CCCCC3)co2)C2CC[C@H]1O2 (stereo partly drawn) [Example 2, (E)-3R-[2R-[[3-[4-[[(4-cyclohexylbutyl)amino]carbonyl]-2-oxazolyl]-7-oxabicyclo[2.2.1]hept-2-yl]methyl]-4-fluoro-phenyl]-N-(ethylsulfonyl)acrylic amide]	100	50	190	1600	140	<1	1100	–
CS(=O)(=O)NC(=O)/C=C/c1ccc(F)cc1C[C@@H]1C(c2nc(C(=O)NCCCCC3CCCCC3)co2)C2CC[C@H]1O2 (stereo partly drawn) [Example 3, (E)-3R-[2R-[[3-[4-[[(4-cyclohexylbutyl)amino]carbonyl]-2-oxazolyl]-7-oxabicyclo[2.2.1]hept-2-yl]methyl]-4-fluoro-phenyl]-N-(methylsulfonyl)acrylic amide]	90	30	65	790	100	<1	–	–
O=C(/C=C/c1ccc(F)cc1C[C@@H]1C(c2nc(C(=O)NCCCCC3CCCCC3)co2)C2CC[C@H]1O2)NS(=O)(=O)CC(F)(F)F (stereo partly drawn) [Example 4, (E)-3R-[2R-[[3-[4-[[(4-cyclohexylbutyl)amino]carbonyl]-2-oxazolyl]-7-oxabicyclo[2.2.1]hept-2-yl]methyl]-4-fluoro-phenyl]-N-(2,2,2-trifluoroethanesulfonyl)acrylic amide]	130	80	50	2500	80	<1	–	5300
O=C(/C=C/c1ccc(F)cc1C[C@@H]1C(c2nc(C(=O)NCCCCC3CCCCC3)co2)C2CC[C@H]1O2)NS(=O)(=O)c1ccccc1 (stereo partly drawn) [Example 6, (E)-3R-[2R-[[3-[4-[[(4-cyclohexylbutyl)amino]carbonyl]-2-oxazolyl]-7-oxabicyclo[2.2.1]hept-2-yl]methyl]-4-fluoro-phenyl]-N-(benzenesulfonyl)acrylic amide]	100	60	60	290	380	<1	1500	–
CCCCCCCCNC(=O)c1coc(C2C3CCC(O3)C2Cc2cc(F)ccc2/C=C/C(=O)NS(=O)(=O)CC)n1 (stereo not drawn) [Example 7]	370	45	80	1900	200	<1	3500	–
CCCCCCCCCNC(=O)c1coc(C2C3CCC(O3)C2Cc2cc(F)ccc2CCC(=O)NS(=O)(=O)C(F)(F)F)n1 (stereo not drawn) [Example 8, 2-{3-[5-Fluoro-2-(3-oxo-3-trifluoromethanesulfonylamino-propyl)-benzyl]-7-oxa-bicyclo[2.2.1]hept-2-yl}-oxazole-4-carboxylic acid nonylamide]	50	10	40	700	30	<1	3300	4000
